From ChEMBL document CHEMBL5137050, “Hematopoietic Progenitor Kinase 1 in Tumor Immunology: A Medicinal Chemistry Perspective” (J Med Chem, 2022) come the findings set out here.

Some results are limits rather than exact numbers.

Assay [1] has as its target T1, Tyrosine-protein kinase ZAP-70 (Homo sapiens, UniProt P43403).
T1 sequence (P43403 whole entry): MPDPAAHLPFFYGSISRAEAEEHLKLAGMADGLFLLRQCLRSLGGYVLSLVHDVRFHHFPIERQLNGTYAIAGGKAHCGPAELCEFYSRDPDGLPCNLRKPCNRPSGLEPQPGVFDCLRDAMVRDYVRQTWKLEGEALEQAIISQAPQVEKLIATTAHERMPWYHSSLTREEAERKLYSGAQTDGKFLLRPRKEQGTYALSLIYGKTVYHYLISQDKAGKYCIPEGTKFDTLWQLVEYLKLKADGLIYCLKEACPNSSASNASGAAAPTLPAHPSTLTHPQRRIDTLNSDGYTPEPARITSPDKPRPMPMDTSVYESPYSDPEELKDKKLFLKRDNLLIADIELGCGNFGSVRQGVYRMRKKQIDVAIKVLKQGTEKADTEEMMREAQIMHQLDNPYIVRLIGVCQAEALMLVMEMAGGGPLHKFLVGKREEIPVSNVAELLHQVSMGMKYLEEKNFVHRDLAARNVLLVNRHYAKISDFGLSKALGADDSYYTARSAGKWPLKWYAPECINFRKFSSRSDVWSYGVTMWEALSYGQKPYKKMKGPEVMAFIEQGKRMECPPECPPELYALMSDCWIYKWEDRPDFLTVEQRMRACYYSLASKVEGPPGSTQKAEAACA
The assay can be described thus: Inhibition of ZAP70 (unknown origin).

Assay [2] concerns the target T2, Mitogen-activated protein kinase kinase kinase kinase 1 (Homo sapiens, UniProt Q92918). The assay can be described thus: Inhibition of full-length unphosphorylated HPK1 (unknown origin) by scintillation proximity assay.
The target in assay [3] is Tyrosine-protein kinase Lck (Homo sapiens, UniProt P06239). The assay can be described thus: Inhibition of LCK (unknown origin).
Sequence of Tyrosine-protein kinase Lck (P06239 whole entry): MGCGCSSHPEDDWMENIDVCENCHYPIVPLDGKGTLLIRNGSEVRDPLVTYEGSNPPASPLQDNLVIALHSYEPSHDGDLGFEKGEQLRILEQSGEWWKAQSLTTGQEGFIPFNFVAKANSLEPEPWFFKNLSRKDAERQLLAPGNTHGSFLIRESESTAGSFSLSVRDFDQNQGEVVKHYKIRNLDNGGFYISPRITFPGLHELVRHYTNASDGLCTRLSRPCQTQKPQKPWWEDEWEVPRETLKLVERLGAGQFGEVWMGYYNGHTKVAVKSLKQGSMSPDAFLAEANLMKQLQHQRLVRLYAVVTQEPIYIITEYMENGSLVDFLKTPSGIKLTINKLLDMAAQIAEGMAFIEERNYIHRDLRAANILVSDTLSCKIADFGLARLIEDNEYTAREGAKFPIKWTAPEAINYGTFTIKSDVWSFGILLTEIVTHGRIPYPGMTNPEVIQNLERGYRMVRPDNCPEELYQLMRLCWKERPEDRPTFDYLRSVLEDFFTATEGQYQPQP
In assay [4] the target is T3, Tyrosine-protein kinase ITK/TSK (Homo sapiens, UniProt Q08881).
T3 sequence (Q08881 whole entry): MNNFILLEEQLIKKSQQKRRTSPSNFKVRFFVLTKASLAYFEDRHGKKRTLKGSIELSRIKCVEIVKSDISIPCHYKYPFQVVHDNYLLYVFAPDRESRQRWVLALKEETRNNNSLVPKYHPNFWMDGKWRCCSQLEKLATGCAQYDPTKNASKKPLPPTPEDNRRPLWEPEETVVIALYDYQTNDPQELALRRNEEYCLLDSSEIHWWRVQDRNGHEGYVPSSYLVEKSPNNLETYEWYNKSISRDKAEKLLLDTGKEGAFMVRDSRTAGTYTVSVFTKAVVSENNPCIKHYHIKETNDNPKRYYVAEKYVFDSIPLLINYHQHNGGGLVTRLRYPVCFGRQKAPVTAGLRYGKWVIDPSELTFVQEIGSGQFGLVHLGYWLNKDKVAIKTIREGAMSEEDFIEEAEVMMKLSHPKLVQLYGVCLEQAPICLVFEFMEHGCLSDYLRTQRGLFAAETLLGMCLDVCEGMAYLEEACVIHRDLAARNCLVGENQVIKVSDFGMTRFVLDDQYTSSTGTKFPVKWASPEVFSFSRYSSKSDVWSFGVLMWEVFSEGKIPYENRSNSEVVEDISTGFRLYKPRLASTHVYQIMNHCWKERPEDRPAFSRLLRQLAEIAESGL
The assay can be described thus: Inhibition of ITK (unknown origin).

For assay [5], the target named is T2, Mitogen-activated protein kinase kinase kinase kinase 1. In words: Inhibition of full-length phosphorylated HPK1 (unknown origin).
For assay [6] the target is unchanged. The assay can be described thus: Inhibition of HPK1 (unknown origin) preincubated for 15 mins measured after 90 mins by ADP-Glo kinase assay.
Assay [7] has the same target. The assay can be described thus: Inhibition of HPK1 in human Jurkat E6.1 cells assessed as inhibition of SLP76 phosphorylation treated for 4 hrs by HTRF assay. The format is cell-based.

T2 sequence (Q92918 whole entry): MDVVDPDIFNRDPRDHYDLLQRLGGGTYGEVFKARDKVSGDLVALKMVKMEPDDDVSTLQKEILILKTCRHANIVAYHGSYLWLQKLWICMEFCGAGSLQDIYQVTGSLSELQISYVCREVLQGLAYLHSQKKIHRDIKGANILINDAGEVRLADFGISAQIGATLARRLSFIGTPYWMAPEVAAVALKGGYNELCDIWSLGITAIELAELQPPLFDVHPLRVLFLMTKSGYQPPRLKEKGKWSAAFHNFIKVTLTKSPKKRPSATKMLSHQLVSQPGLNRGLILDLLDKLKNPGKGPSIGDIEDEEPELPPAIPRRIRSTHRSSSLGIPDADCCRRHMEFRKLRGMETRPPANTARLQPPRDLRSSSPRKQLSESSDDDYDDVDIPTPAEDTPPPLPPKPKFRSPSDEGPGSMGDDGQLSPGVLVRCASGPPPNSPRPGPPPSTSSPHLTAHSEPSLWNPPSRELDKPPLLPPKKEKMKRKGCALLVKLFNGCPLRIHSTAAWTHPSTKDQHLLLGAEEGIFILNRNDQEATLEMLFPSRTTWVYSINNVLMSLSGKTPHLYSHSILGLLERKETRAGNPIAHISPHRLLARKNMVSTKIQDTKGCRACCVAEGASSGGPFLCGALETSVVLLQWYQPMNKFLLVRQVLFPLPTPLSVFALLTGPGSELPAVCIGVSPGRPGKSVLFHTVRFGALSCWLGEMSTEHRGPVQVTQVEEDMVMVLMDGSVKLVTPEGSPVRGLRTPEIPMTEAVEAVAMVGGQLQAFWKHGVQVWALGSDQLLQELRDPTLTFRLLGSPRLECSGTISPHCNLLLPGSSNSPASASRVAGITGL

In the case of `Cc1[nH]c2nnc(C)n2c(=O)c1CC(=O)Nc1ncc(Cc2ccccc2F)s1`, the half-inhibitory concentration (IC50) was more than 49.5 µM in assay [1]; 1200 nM in assay [2]; more than 49.5 µM in assay [3]; more than 49.5 µM in assay [4]; 29 µM in assay [5].
Regarding `CN1CCC(c2ncc(-c3cnc(N)c(OCc4cccc(C#CC(C)(C)O)c4)c3)s2)CC1`, the IC50 in assay [6] was less than 100 nM; in assay [7], less than 1000 nM.
